Holding throughout (format): cell-based
Assay [1] addresses T1, Kir7.1 (hKir7.1) (Homo sapiens, UniProt O60928).
T1 sequence (O60928 1-360): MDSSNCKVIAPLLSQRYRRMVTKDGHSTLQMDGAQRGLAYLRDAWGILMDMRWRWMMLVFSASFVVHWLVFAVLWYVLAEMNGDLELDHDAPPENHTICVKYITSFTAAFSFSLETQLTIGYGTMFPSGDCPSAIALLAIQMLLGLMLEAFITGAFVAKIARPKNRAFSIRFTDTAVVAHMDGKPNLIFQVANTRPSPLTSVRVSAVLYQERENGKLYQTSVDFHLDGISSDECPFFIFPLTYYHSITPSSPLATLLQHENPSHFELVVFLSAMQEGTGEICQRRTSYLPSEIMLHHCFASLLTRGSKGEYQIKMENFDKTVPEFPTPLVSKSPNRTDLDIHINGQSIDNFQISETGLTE
As to the kind of experiment: whole-cell patch clamp, inhibition of P4-activated current. Also on record: gene KCNJ13; recombinant hKir7.1 in HEK293 cells. On the technique in general: The patch-clamp technique gives a direct electrical read-out from membranes.

The target in assay [2] is T2, murine Kir7.1 (Mus musculus, UniProt P86046).
T2 construct: gene Kcnj13; recombinant murine Kir7.1 in HEK293 cells
T2 sequence (P86046 1-360): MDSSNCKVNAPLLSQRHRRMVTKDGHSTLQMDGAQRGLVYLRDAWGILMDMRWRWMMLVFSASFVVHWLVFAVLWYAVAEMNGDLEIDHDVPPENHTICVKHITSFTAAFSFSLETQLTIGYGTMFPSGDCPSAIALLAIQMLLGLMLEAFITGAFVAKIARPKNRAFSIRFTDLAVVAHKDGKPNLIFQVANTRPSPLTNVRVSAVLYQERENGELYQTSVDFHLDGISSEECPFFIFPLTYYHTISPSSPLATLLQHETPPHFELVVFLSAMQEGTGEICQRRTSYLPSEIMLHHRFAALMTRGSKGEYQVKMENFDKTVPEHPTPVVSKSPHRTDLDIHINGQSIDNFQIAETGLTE
As to the kind of experiment: whole-cell patch clamp, dose response of current potentiation.

Assay [3] concerns the target T1, Kir7.1 (hKir7.1). The experiment in a line: whole-cell patch clamp, dose response of current potentiation at -80 mV. Also on record: gene KCNJ13; recombinant hKir7.1 (pIRES2-eGFP-hKir7.1) in HEK293 cells and HUtSMCs.

A word on the IC50: it is the concentration at which inhibition is half-maximal.

Turning to `C[C@]12CC[C@@H]3c4ccc(O)cc4CC[C@H]3[C@@H]1CC[C@@H]2O` [E2, 17β-estradiol], the IC50 in assay [1] is 8.6 µM.

For the compound `CC(=O)[C@H]1CC[C@H]2[C@@H]3CCC4=CC(=O)CC[C@]4(C)[C@H]3CC[C@]12C` [P4, progesterone], the EC50 is ~ 9.4 and 11.5 μM in assay [2]; ~ 9.4 and 11.5 μM in assay [3].

(Values after publication PMC11881918, “Kir7.1 is the physiological target for hormones and steroids that regulate uteroplacental function” (Science Advances, 2025).)
